From ChEMBL document CHEMBL5055683, “Synthetic Sansanmycin Analogues as Potent Mycobacterium tuberculosis Translocase I Inhibitors” (J Med Chem, 2021) come the findings set out here.

Assay [1] can be described thus: Inhibition of Mycobacterium tuberculosis MurX using UDP-MurNAc-dansylpentapeptide as substrate by fluorescence assay.
For assay [2], the system named is Mycobacterium tuberculosis H37Rv. The experiment in a line: Antimycobacterial activity against Mycobacterium tuberculosis H37Rv assessed as reduction in bacterial growth incubated for 5 days by resazurin assay. Type of assay: functional. Conditions: 120 h, time 5 day. For orientation: Resazurin is reduced to fluorescent resorufin, in cell work by metabolically active cells.

Assay [3] has the same test system. The experiment in a line: Antimycobacterial activity against Mycobacterium tuberculosis H37Rv infected in human THP-1 macrophages assessed as reduction in microbial growth incubated for 72 hrs. Type of assay: functional.
For assay [4], the system named is Mycobacterium tuberculosis. The experiment in a line: Antimycobacterial activity against Mycobacterium tuberculosis mc2 6230 assessed as reduction in bacterial growth incubated for 10 days by time-kill kinetics method. It counts as functional. As to conditions: mc2 6230, 240 h, time 10 day.
Another assay concerns Escherichia coli. The experiment in a line: Antibacterial activity against Escherichia coli BW25113 assessed as reduction in bacterial growth measured every 1 hr for 16 to 20 hrs. Conditions: time 16-20 hrs. Type of assay: functional.
A further assay relates to Staphylococcus aureus. The experiment in a line: Antibacterial activity against Staphylococcus aureus ATCC 29213 assessed as reduction in bacterial growth measured every 1 hr for 16 to 20 hrs. Type of assay: functional. Conditions: time 16-20 hrs.
The subject of assay [5] is Mycobacterium tuberculosis. Briefly: Bacteriostatic activity against Mycobacterium tuberculosis mc2 6230 at 10 times MIC after 28 days by time-kill kinetics method. As to conditions: time 28.0 day. Type of assay: functional, organism-based.
For the next assay, the system named is Mycobacterium avium. The experiment in a line: Antimycobacterial activity against Mycobacterium avium CA 6 assessed as reduction in bacterial growth measured every 1 hr for 16 to 20 hrs. It counts as functional. Conditions: time 16-20 hrs.
The test system of the next assay is Enterococcus faecium. The experiment in a line: Antibacterial activity against Enterococcus faecium ATCC 6569 assessed as reduction in bacterial growth measured every 1 hr for 16 to 20 hrs. Type of assay: functional. Conditions: time 16-20 hrs.
A short description of assay [6]: Antimycobacterial activity against Mycobacterium abscessus subsp. abscessus assessed as reduction in bacterial growth measured every 1 hr for 16 to 20 hrs. As to conditions: Mycobacteroides abscessus; time 16-20 hrs. It counts as functional.
Assay [7] relates to Mycolicibacterium fortuitum. Briefly: Antimycobacterial activity against Mycobacterium fortuitum PN assessed as reduction in bacterial growth measured every 1 hr for 16 to 20 hrs. Type of assay: functional. Conditions: time 16-20 hrs.
The subject of another assay is Bacillus subtilis. The experiment in a line: Antibacterial activity against Bacillus subtilis 168 assessed as reduction in bacterial growth measured every 1 hr for 16 to 20 hrs. It counts as functional. Conditions: time 16-20 hrs.
Assay [8] relates to Mycobacteroides abscessus. The experiment in a line: Antimycobacterial activity against Mycobacterium abscessus RA 16 assessed as reduction in bacterial growth measured every 1 hr for 16 to 20 hrs. Type of assay: functional. As to conditions: time 16-20 hrs.
Assay [9] deals with Staphylococcus epidermidis. The experiment in a line: Antibacterial activity against Staphylococcus epidermidis assessed as reduction in bacterial growth measured every 1 hr for 16 to 20 hrs. Type of assay: functional. As to conditions: time 16-20 hrs.
The subject of assay [10] is Mycolicibacterium fortuitum. The experiment in a line: Antimycobacterial activity against Mycobacterium fortuitum RA 17 assessed as reduction in bacterial growth measured every 1 hr for 16 to 20 hrs. Type of assay: functional. As to conditions: time 16-20 hrs.
A further assay has as its system Pseudomonas aeruginosa. The experiment in a line: Antibacterial activity against Pseudomonas aeruginosa ATCC 27853 assessed as reduction in bacterial growth measured every 1 hr for 16 to 20 hrs. Conditions: time 16-20 hrs. Type of assay: functional.
The subject of assay [11] is Mycobacterium marinum. Briefly: Antimycobacterial activity against Mycobacterium marinum infected in zebrafish assessed as reduction in bacterial burden at 100 uM after 3 days post infection by microscopic analysis. Type of assay: functional, organism-based. As to conditions: time 3.0 day.
The test system of assay [12] is Mycobacterium marinum. The experiment in a line: Antimycobacterial activity against Mycobacterium marinum infected in zebrafish assessed as reduction in bacterial burden at 100 uM after 5 days post infection by microscopic analysis. Type of assay: functional, organism-based. Conditions: time 5.0 day.

In brackets after ≈: the same amount, converted by molar mass. Activity calls are given as the source filed them. No cut-off for these calls is given here. Where only a bound is given, the exact number is not on record here.

In the case of `C[C@@H]([C@H](NC(=O)[C@H](CC1CCCCC1)NC(=O)N[C@@H](Cc1c[nH]c2ccccc12)C(=O)OCC(C)(C)C)C(=O)NC[C@H]1C[C@@H](O)[C@H](n2ccc(=O)[nH]c2=O)O1)N(C)C(=O)CN`, half-maximal inhibition in assay [1] (IC50) was put at 712 nM. In addition, the MIC50 amounted to 0.0059 µM (≈ 0.00503 µg/mL) in assay [2] and 12.5 µM in assay [3].
Turning to `C[C@@H]([C@H](NC(=O)[C@H](CC1CCCCC1)NC(=O)N[C@@H](Cc1c[nH]c2ccccc12)C(=O)NCC(C)(C)C)C(=O)NC[C@H]1C[C@@H](O)[C@H](n2ccc(=O)[nH]c2=O)O1)N(C)C(=O)CN`, half-maximal inhibition in assay [1] (IC50) required 60 nM. Besides, the minimum inhibitory concentration (MIC) (as a rule, the lowest concentration found to suppress growth) in assay [4] was 0.313 µM (≈ 0.266 µg/mL); in the assay on Escherichia coli, 88 µM (≈ 74.9 µg/mL); in the assay on Staphylococcus aureus, over 132 µM; in the assay on Mycobacterium avium, 1 µM (≈ 0.851 µg/mL); in the assay on Enterococcus faecium, over 132 µM; in [6], 23 µM (≈ 19.6 µg/mL). For the same molecule, the MIC is 1 µM (≈ 0.851 µg/mL) in [7]; over 132 µM in the assay on Bacillus subtilis; 23 µM (≈ 19.6 µg/mL) in [8]; over 132 µM in assay [9]; 1 µM (≈ 0.851 µg/mL) in assay [10]; over 132 µM in the assay with Pseudomonas aeruginosa. Further, in assay [5], the outcome was inactive. Also, the MIC50 was 0.0225 µM (≈ 0.0191 µg/mL) in assay [2] and 6.7 µM in [3].
On to `CCCCCCOC(=O)[C@H](Cc1c[nH]c2ccccc12)NC(=O)N[C@@H](Cc1ccc2ccccc2c1)C(=O)N[C@H](C(=O)NC[C@H]1C[C@@H](O)[C@H](n2ccc(=O)[nH]c2=O)O1)[C@H](C)N(C)C(=O)CN`, for which half-maximal inhibition in assay [1] (IC50) required 2670 nM. Further, the MIC50 in assay [2] was determined as 0.0269 µM (≈ 0.0245 µg/mL); in [3], 0.5 µM.
Turning to `CCCCCCCCCCCCOC(=O)[C@H](Cc1c[nH]c2ccccc12)NC(=O)N[C@@H](Cc1ccc2ccccc2c1)C(=O)N[C@H](C(=O)NC[C@H]1C[C@@H](O)[C@H](n2ccc(=O)[nH]c2=O)O1)[C@H](C)N(C)C(=O)CN`, the MIC50 in assay [2] was found to be 0.192 µM (≈ 0.191 µg/mL).
Take `CCCCCCNC(=O)[C@H](Cc1c[nH]c2ccccc12)NC(=O)N[C@@H](Cc1ccc2ccccc2c1)C(=O)N[C@H](C(=O)NC[C@H]1C[C@@H](O)[C@H](n2ccc(=O)[nH]c2=O)O1)[C@H](C)N(C)C(=O)CN`: the half-maximal inhibitory concentration (IC50) (usually the concentration that gives 50% inhibition) in [1] turned out to be 49 nM. Moreover, the MIC50 amounted to 0.0925 µM (≈ 0.0841 µg/mL) in [2] and 2.1 µM in assay [3].
As for `C[C@@H]([C@H](NC(=O)[C@H](Cc1ccc2ccccc2c1)NC(=O)N[C@@H](Cc1c[nH]c2ccccc12)C(=O)O)C(=O)NC[C@H]1C[C@@H](O)[C@H](n2ccc(=O)[nH]c2=O)O1)N(C)C(=O)CN`, the values for the MIC50 in assay [2] and in [3] were 0.18 µM (≈ 0.149 µg/mL) and 4.3 µM, respectively.
On to `COC(=O)[C@H](Cc1c[nH]c2ccccc12)NC(=O)N[C@@H](CC1CCCCC1)C(=O)N[C@H](C(=O)NC[C@H]1C[C@@H](O)[C@H](n2ccc(=O)[nH]c2=O)O1)[C@H](C)N(C)C(=O)CN`, for which, in [2], the MIC50 came out at 0.0397 µM (≈ 0.0316 µg/mL).
As for `C[C@@H]([C@H](NC(=O)[C@H](CC1CCCCC1)NC(=O)N[C@@H](Cc1c[nH]c2ccccc12)C(=O)NCc1ccccc1)C(=O)NC[C@H]1C[C@@H](O)[C@H](n2ccc(=O)[nH]c2=O)O1)N(C)C(=O)CN`, in [1], the IC50 turned out to be 66 nM. Besides, the values for the MIC50 in assay [2] and in assay [3] were 0.0454 µM (≈ 0.0395 µg/mL) and 4.6 µM, respectively.
Turning to `COC(=O)[C@H](Cc1c[nH]c2ccccc12)NC(=O)N[C@@H](Cc1ccc2ccccc2c1)C(=O)N[C@H](C(=O)NC[C@H]1C[C@@H](O)[C@H](n2ccc(=O)[nH]c2=O)O1)[C@H](C)N(C)C(=O)CN`, in assay [2], the MIC50 worked out at 0.0652 µM (≈ 0.0548 µg/mL).
As for `C[C@@H]([C@H](NC(=O)[C@H](Cc1ccc2ccccc2c1)NC(=O)N[C@@H](Cc1c[nH]c2ccccc12)C(=O)NCC(C)(C)C)C(=O)NC[C@H]1C[C@@H](O)[C@H](n2ccc(=O)[nH]c2=O)O1)N(C)C(=O)CN`, it took 20 nM to reach half-maximal inhibition in assay [1] (IC50). For the same molecule, the MIC in assay [4] is 0.181 µM (≈ 0.162 µg/mL); with Escherichia coli, 132 µM (≈ 118 µg/mL); in the assay on Staphylococcus aureus it was over 132 µM; with Mycobacterium avium, 1 µM (≈ 0.895 µg/mL); in the assay on Enterococcus faecium, over 132 µM; in assay [6], 26 µM (≈ 23.3 µg/mL). Further, the MIC was 2 µM (≈ 1.79 µg/mL) in assay [7]; 132 µM (≈ 118 µg/mL) in the assay with Bacillus subtilis; 13 µM (≈ 11.6 µg/mL) in [8]; over 132 µM in assay [9]; 1 µM (≈ 0.895 µg/mL) in assay [10]; over 132 µM in the assay with Pseudomonas aeruginosa. The outcome (with Mycobacterium marinum [11]; in [5]) was Active. The MIC50 in assay [2] was 0.0419 µM (≈ 0.0375 µg/mL); in assay [3], 1.2 µM.
In assay [1], `CCCCCCOC(=O)[C@H](Cc1c[nH]c2ccccc12)NC(=O)N[C@@H](CC1CCCCC1)C(=O)N[C@H](C(=O)NC[C@H]1C[C@@H](O)[C@H](n2ccc(=O)[nH]c2=O)O1)[C@H](C)N(C)C(=O)CN` returned an IC50 of 1390 nM. Besides, the MIC50 in assay [2] came out at 0.0172 µM (≈ 0.0149 µg/mL); in [3], 9.5 µM.
`C[C@@H]([C@H](NC(=O)[C@H](CC1CCCCC1)NC(=O)N[C@@H](Cc1c[nH]c2ccccc12)C(=O)O)C(=O)NC[C@H]1C[C@@H](O)[C@H](n2ccc(=O)[nH]c2=O)O1)N(C)C(=O)CN` gave an IC50 in assay [1] of 54 nM. For the same molecule, the MIC50 in assay [2] stood at 0.08 µM (≈ 0.0625 µg/mL); in [3], 1.6 µM.
`CO[C@H]1/C=C/O[C@@]2(C)Oc3c(C)c(O)c4c(O)c(c(/C=N/N5CCN(C)CC5)c(O)c4c3C2=O)NC(=O)/C(C)=C\C=C\[C@H](C)[C@H](O)[C@@H](C)[C@@H](O)[C@@H](C)[C@H](OC(C)=O)[C@@H]1C` [RIFAMPIN]: in the assay with Mycobacterium marinum [12], the outcome was Active. Besides, in assay [2], the MIC50 stood at 0.00153 µM (≈ 0.00126 µg/mL).
For `C[C@@H]([C@H](NC(=O)[C@H](Cc1ccc2ccccc2c1)NC(=O)N[C@@H](Cc1c[nH]c2ccccc12)C(=O)NCc1ccccc1)C(=O)NC[C@H]1C[C@@H](O)[C@H](n2ccc(=O)[nH]c2=O)O1)N(C)C(=O)CN`, the IC50 in assay [1] came to 34 nM. For the same molecule, the MIC50 in [2] stood at 0.0741 µM (≈ 0.0678 µg/mL); in assay [3], 1.9 µM.
The matching figures for `C[C@@H]([C@H](NC(=O)[C@H](Cc1ccc2ccccc2c1)NC(=O)N[C@@H](Cc1c[nH]c2ccccc12)C(=O)OCc1ccccc1)C(=O)NC[C@H]1C[C@@H](O)[C@H](n2ccc(=O)[nH]c2=O)O1)N(C)C(=O)CN`: 1380 nM, 0.0132 µM (≈ 0.0121 µg/mL) and 5.1 µM.
For `CCCCCCNC(=O)[C@H](Cc1c[nH]c2ccccc12)NC(=O)N[C@@H](CC1CCCCC1)C(=O)N[C@H](C(=O)NC[C@H]1C[C@@H](O)[C@H](n2ccc(=O)[nH]c2=O)O1)[C@H](C)N(C)C(=O)CN`, 75 nM corresponded to half-maximal inhibition in assay [1] (IC50). For the same molecule, the MIC50 in [2] is 0.124 µM (≈ 0.107 µg/mL); in [3], over 100 µM.
For `C[C@@H]([C@H](NC(=O)[C@H](CC1CCCCC1)NC(=O)N[C@@H](Cc1c[nH]c2ccccc12)C(=O)OCc1ccccc1)C(=O)NC[C@H]1C[C@@H](O)[C@H](n2ccc(=O)[nH]c2=O)O1)N(C)C(=O)CN`, in that order: 614 nM, 0.0085 µM (≈ 0.00741 µg/mL) and 11.3 µM.
The matching figures for `C[C@@H]([C@H](NC(=O)[C@H](Cc1ccc2ccccc2c1)NC(=O)N[C@@H](Cc1c[nH]c2ccccc12)C(=O)OCC(C)(C)C)C(=O)NC[C@H]1C[C@@H](O)[C@H](n2ccc(=O)[nH]c2=O)O1)N(C)C(=O)CN`: 801 nM, 0.021 µM (≈ 0.0188 µg/mL) and 1.5 µM.
Take `CCCCCCCCCCCCOC(=O)[C@H](Cc1c[nH]c2ccccc12)NC(=O)N[C@@H](CC1CCCCC1)C(=O)N[C@H](C(=O)NC[C@H]1C[C@@H](O)[C@H](n2ccc(=O)[nH]c2=O)O1)[C@H](C)N(C)C(=O)CN`: in [2], the MIC50 amounted to 0.142 µM (≈ 0.135 µg/mL).
